Assay results reported in the supplement of paper PMC10307832.

Experiments:
Assay in all cases: relative viability (nuclei count vs DMSO), 5 days (fraction); higher = more cells survive
SGI-1776 + Foretinib = compound: CN1CCC(CNc2ccc3ncc(-c4cccc(OC(F)(F)F)c4)n3n2)CC1 [SGI-1776] + COc1cc2c(Oc3ccc(NC(=O)C4(C(=O)Nc5ccc(F)cc5)CC4)cc3F)ccnc2cc1OCCCN1CCOCC1 [Foretinib] (partner 0.25 µM)
How it was run: (§1)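 Relative viability equals treated-well nuclei counts divided by vehicle-well nuclei counts. Counts came from 4× images of lung cancer cell lines grown in 1536-well plates for 5 days after pin-tool dosing on the day after seeding. Dosing used one drug alone or a fixed anchor-drug dose plus five library-drug doses (not always all listed) in √10 steps, and values are medians of duplicate plates.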

SGI-1776 + Pemetrexed = compound: CN1CCC(CNc2ccc3ncc(-c4cccc(OC(F)(F)F)c4)n3n2)CC1 [SGI-1776] + Nc1nc2[nH]cc(CCc3ccc(C(=O)N[C@@H](CCC(=O)O)C(=O)O)cc3)c2c(=O)[nH]1 [Pemetrexed] (partner 0.2 µM)
How it was run: as §1

Entinostat + Dasatinib = compound: Nc1ccccc1NC(=O)c1ccc(CNC(=O)OCc2cccnc2)cc1 [Entinostat] + Cc1nc(Nc2ncc(C(=O)Nc3c(C)cccc3Cl)s2)cc(N2CCN(CCO)CC2)n1 [Dasatinib] (partner 0.075 µM)
How it was run: as §1

Entinostat + Pemetrexed = compound: Nc1ccccc1NC(=O)c1ccc(CNC(=O)OCc2cccnc2)cc1 [Entinostat] + Nc1nc2[nH]cc(CCc3ccc(C(=O)N[C@@H](CCC(=O)O)C(=O)O)cc3)c2c(=O)[nH]1 [Pemetrexed] (partner 0.2 µM)
How it was run: as §1

Cell Line	relative viability (SGI-1776 + Foretinib; first compound 0.08 µM)	relative viability (SGI-1776 + Foretinib; first compound 0.8 µM)	relative viability (SGI-1776 + Foretinib; first compound 2.53 µM)	relative viability (SGI-1776 + Foretinib; first compound 8 µM)	relative viability (SGI-1776 + Pemetrexed; first compound 0.08 µM)	relative viability (SGI-1776 + Pemetrexed; first compound 0.8 µM)	relative viability (SGI-1776 + Pemetrexed; first compound 2.53 µM)	relative viability (SGI-1776 + Pemetrexed; first compound 8 µM)	relative viability (Entinostat + Dasatinib; first compound 0.02 µM)	relative viability (Entinostat + Dasatinib; first compound 0.06325 µM)	relative viability (Entinostat + Dasatinib; first compound 0.2 µM)	relative viability (Entinostat + Dasatinib; first compound 0.6325 µM)	relative viability (Entinostat + Dasatinib; first compound 2 µM)	relative viability (Entinostat + Pemetrexed; first compound 0.02 µM)	relative viability (Entinostat + Pemetrexed; first compound 0.06325 µM)	relative viability (Entinostat + Pemetrexed; first compound 0.2 µM)	relative viability (Entinostat + Pemetrexed; first compound 0.6325 µM)	relative viability (Entinostat + Pemetrexed; first compound 2 µM)
201T	1.13	1.09	1.03	1.02	0.325	0.339	0.348	0.301	0.651	0.559	0.58	0.421	0.313	0.37	0.33	0.379	0.287	0.279
A549	1.07	0.891	0.752	0.277														
A-427	1.15	1.17	0.972	0.983	1.01	1.05	0.944	0.897	0.707	0.679	0.614	0.525	0.442	1.03	0.971	0.922	0.904	0.765
ABC-1	1.06	0.974	0.984	0.64					0.47	0.751	0.663	0.51	0.486					
BEN	0.72	0.623	0.472	0.552	0.806	0.811	0.712	0.615	0.318	0.341	0.308	0.264	0.179	0.88	1.02	0.891	0.564	0.413
CAL-12T	1.21	1.08	1.25	0.577	1.31	1.06	1.16	1.28	0.571	0.427	0.375	0.295	0.218	1.17	1.09	1.49	1.21	0.676
COR-L23	0.976	0.92	1.02	0.931	0.212	0.188	0.2	0.18	0.45	0.444	0.398	0.22	0.112	0.21	0.184	0.197	0.179	0.167
COR-L 105	0.857	1.1	0.72	0.734	1.06	1.14	1.11	1.09	0.337	0.407	0.36	0.344	0.232	1.12	1.23	1.12	0.816	0.56
Calu-6	0.91	0.88	0.875	0.344														
ChaGo-K-1	0.834	0.96	0.993	0.741	0.269	0.267	0.287	0.242	0.709	0.554	0.671	0.526	0.553	0.269	0.262	0.271	0.264	0.259
EBC-1	0.0952	0.0955	0.127	0.0874														
EKVX	1.36	0.837	0.863	0.749	0.396	0.477	0.395	0.371	0.656	0.51	0.492	0.435	0.343	0.402	0.376	0.385	0.344	0.273
